Data from patent EP4818168A1, “FUSED RING COMPOUND, PHARMACEUTICAL COMPOSITION THEREOF AND USE THEREOF” (priority 2023, dated 2025).
Like-named read-outs stand apart in the source and are kept apart here.

Assays:
Assay type in all cases: cell-based
HCC1806 cells = assay: CTG assay of compound inhibition on cell viability (HCC1806 cells); settings: Homo sapiens, read-out: IC50 in HCC1806 Cells
Protocol: CellTiter-Glo (CTG) is a rapid cell viability test method based on ATP detection. […] Adenosine triphosphate (ATP) participates in various enzymatic reactions in organisms and is an indicator of living cell metabolism. Its content directly reflects the number of living cells and cell status. During the experiment, equal volume of CTG reagent is added to the cultured cells to measure the luminescence value. The chemiluminescent signal value is proportional to the amount of ATP, thus reflecting the number of viable cells. Therefore, cell viability can be obtained by detecting the ATP content. Compounds that affect cell viability will inhibit cell viability in a concentration-dependent manner, allowing a curve to be fitted to obtain the IC50 value.
The experimental procedure is as follows: • 11. Place the cell suspension in a 15 mL centrifuge tube, centrifuge at 1000 rpm for 5 min at room temperature, discard the supernatant, and collect the cell pellet. • 12. Resuspend the cell pellet with preheated complete cell culture medium (RPMI1640+10%FBS+1%PS), and use a Countess® automated cell counter to detect cell viability and density. The cell viability must be above 90%. • 13. […] Transfer the compound solution to a 96-well plate seeded with cells (final concentration of DMSO 0.1%), and place in a cell incubator at 37°C, 5% CO2 for 6 days. • 15. […] Protect from light during the whole process. Perform optical signal readings using a SpectraMax i3x reader. • 16. Data analysis: Remaining activity (%) = 100% * (1 - ((LumDMSO - Lummedium) - Lumsample) / (LumDMSO - LumPBS/medium)). Use GraphPad Prism 9.0 software to draw an S-shaped dose-survival rate curve and calculate the IC50 value using a nonlinear regression model.

AURKA = biological target: T1, AURKA (Homo sapiens, UniProt O14965)
T1 construct: endogenous in cells; host or cells: Jurkat cells
T1 sequence (O14965 1-403): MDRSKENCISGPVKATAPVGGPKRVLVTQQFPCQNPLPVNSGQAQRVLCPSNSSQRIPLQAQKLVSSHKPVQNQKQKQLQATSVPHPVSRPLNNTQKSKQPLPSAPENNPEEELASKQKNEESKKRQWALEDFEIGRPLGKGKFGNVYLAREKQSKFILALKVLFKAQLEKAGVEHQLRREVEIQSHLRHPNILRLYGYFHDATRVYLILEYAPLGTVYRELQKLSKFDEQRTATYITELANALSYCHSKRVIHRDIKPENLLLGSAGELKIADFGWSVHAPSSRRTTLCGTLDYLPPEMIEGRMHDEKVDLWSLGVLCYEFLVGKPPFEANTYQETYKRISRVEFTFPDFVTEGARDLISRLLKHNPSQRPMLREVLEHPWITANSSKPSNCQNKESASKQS
Method in brief: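 AURKA degradation read by western blot: band signal, fluorescent or chemiluminescent, curve-fitted to derive DC50. Cells were Jurkat, plated at 1×10^6 cells/500 µL with compound, then lysed and blotted onto nitrocellulose, primary antibody overnight at 4°C.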

H82 cells = assay: cells; settings: Homo sapiens
Method in brief: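 After 6 days' compound treatment at 37 °C (final DMSO 0.1%, RPMI1640/10% FBS), viable H82 cells were quantified by ATP-dependent CellTiter-Glo luminescence. Remaining activity was calculated against DMSO and medium wells, and a sigmoidal fit gave IC50.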

[1] = 100 nM compound, Jurkat cells, 24 h, Table 1
[2] = 1 µM compound, Jurkat cells, 24 h, Table 1
[3] = 100 nM compound, Jurkat cells, 24 h, Table 2
[4] = 1 µM compound, Jurkat cells, 24 h, Table 2
[5] = NCI-H82, H82 cells, 4000 cells/well, CellTiter-Glo, read-out: IC50 in H82 Cells

Row | Structure (SMILES) | IC50 (HCC1806 cells; HCC1806, 144 h) [nM] | Percentage of AURKA Degradation Induced by 100 nM Compound in Jurkat Cells (AURKA; [1]) | Percentage of AURKA Degradation Induced by 1 µM Compound in Jurkat Cells (AURKA; [2]) | further results
1 | O=C1CCN(c2cnc(N3CCN(CCNC(=O)c4ccc(Nc5ncc6c(n5)-c5ccc(Cl)cc5C(c5c(F)cccc5F)=NC6)cc4)CC3)s2)C(=O)N1 [Compound A25] | < 1000 | +++ (Degradation > 70%) | ++ (30% < Degradation ≤ 70%) | 
2 | COc1cc(Nc2ncc3c(n2)-c2ccc(Cl)cc2C(c2c(F)cccc2OC)=NC3)ccc1C(=O)NCCN1CCN(c2ccc(N3CCC(=O)NC3=O)nc2)CC1 [Compound A30] | < 1000 | ++ (30% < Degradation ≤ 70%) | ++ (30% < Degradation ≤ 70%) | 
3 | COc1cccc(F)c1C1=NCc2cnc(Nc3ccc(C(=O)NC4CN(CC5CN(c6ccc(N7CCC(=O)NC7=O)cc6)C5)C4)cc3)nc2-c2ccc(Cl)cc21 [Compound A71] | < 1000 | +++ (Degradation > 70%) | +++ (Degradation > 70%) | 
4 | COc1cc(Nc2ncc3c(n2)-c2ccc(Cl)cc2C(c2c(F)cccc2OC)=NC3)ccc1C(=O)NC1CC2(CCN(c3ncc(N4CCC(=O)NC4=O)s3)CC2)C1 [Compound A80] | < 1000 | ++ (30% < Degradation ≤ 70%) | +++ (Degradation > 70%) | 
5 | COc1cc(Nc2ncc3c(n2)-c2ccc(Cl)cc2C(c2c(F)cccc2OC)=NC3)ccc1C(=O)NCCN1CCN(c2ccc(C3CCC(=O)NC3=O)cc2)CC1 (centres unmarked) [Compound A47] | < 1000 |  |  | Percentage of AURKA Degradation Induced by 100 nM Compound in Jurkat Cells (AURKA): ++ (key: +: Degradation ≤ 30%; ++: 30% < Degradation ≤ 70%; +++: Degradation > 70%); Percentage of AURKA Degradation Induced by 1 µM Compound in Jurkat Cells (AURKA): + (key: +: Degradation ≤ 30%; ++: 30% < Degradation ≤ 70%; +++: Degradation > 70%)
6 | O=C1CCN(c2ccc(N3CCN(C4CN(C(=O)c5ccc(Nc6ncc7c(n6)-c6ccc(Cl)cc6C(c6c(F)cccc6F)=NC7)cc5)C4)CC3)cc2)C(=O)N1 [Compound A19] | < 1000 | ++ (30% < Degradation ≤ 70%) | + (Degradation ≤ 30%) | 
7 | COc1cc(Nc2ncc3c(n2)-c2ccc(Cl)cc2C(c2c(F)cccc2OC)=NC3)ccc1C(=O)NCCN1CCN(c2ncc(N3CCC(=O)NC3=O)cn2)CC1 [Compound A45] | < 1000 | ++ (30% < Degradation ≤ 70%) | ++ (30% < Degradation ≤ 70%) | 
8 | COc1cc(Nc2ncc3c(n2)-c2ccc(Cl)cc2C(c2c(F)cccc2OC)=NC3)ccc1C(=O)N[C@H]1C[C@H](C#Cc2ccc(N3CCC(=O)NC3=O)cc2)C1 [Compound A51] | 1000 to 10000 | ++ (30% < Degradation ≤ 70%) | +++ (Degradation > 70%) | 
9 | COc1cc(Nc2ncc3c(n2)-c2ccc(Cl)cc2C(c2c(F)cccc2OC)=NC3)ccc1C(=O)N1CCC2(C1)CN(c1ccc(N3CCC(=O)NC3=O)cc1)C2 [Compound A44] | < 1000 | + (Degradation ≤ 30%) | + (Degradation ≤ 30%) | 
10 | COc1cc(Nc2ncc3c(n2)-c2ccc(Cl)cc2C(c2c(F)cccc2OC)=NC3)ccc1C(=O)NC1CC2(CCN(c3ccc(N4CCC(=O)NC4=O)cn3)CC2)C1 [Compound A54] | < 1000 | +++ (Degradation > 70%) | +++ (Degradation > 70%) | 
11 | O=C1CCN(c2cnc3c(N4CCN(CCNC(=O)c5ccc(Nc6ncc7c(n6)-c6ccc(Cl)cc6C(c6c(F)cccc6F)=NC7)cc5)CC4)cccn23)C(=O)N1 [Compound A22] | < 1000 | +++ (Degradation > 70%) | +++ (Degradation > 70%) | 
12 | O=C1CCC(N2C(=O)c3cccc(NCCOCCNC(=O)c4ccc(Nc5ncc6c(n5)-c5ccc(Cl)cc5C(c5c(F)cccc5F)=NC6)cc4)c3C2=O)C(=O)N1 (centres unmarked) [Compound A1] |  | ++ (30% < Degradation ≤ 70%) | ++ (30% < Degradation ≤ 70%) | IC50 (HCC1806 cells; 144 h, HCC1806 cells, 6 days, CellTiter-Glo): < 1000 nM
13 | COc1cc(Nc2ncc3c(n2)-c2ccc(Cl)cc2C(c2c(F)cccc2OC)=NC3)ccc1C(=O)NCCC#Cc1ccc(N2CCC(=O)NC2=O)cc1 [Compound A26] | < 1000 | + (Degradation ≤ 30%) | + (Degradation ≤ 30%) | 
14 | COc1cc(Nc2ncc3c(n2)-c2ccc(Cl)cc2C(c2c(F)cccc2OC)=NC3)ccc1C(=O)NCC1CCN(Cc2ccc(N3CCC(=O)NC3=O)cc2)CC1 [Compound A27] | 1000 to 10000 | + (Degradation ≤ 30%) | + (Degradation ≤ 30%) | 
15 | COc1cc(Nc2ncc3c(n2)-c2ccc(Cl)cc2C(c2c(F)cccc2OC)=NC3)ccc1C(=O)O [alisertib, reference compound] | < 1000 | + (Degradation ≤ 30%) | + (Degradation ≤ 30%) | 
16 | O=C1CCN(c2cccc(C#CC34CC(NC(=O)c5ccc(Nc6ncc7c(n6)-c6ccc(Cl)cc6C(c6c(F)cccc6F)=NC7)cc5)(C3)C4)c2)C(=O)N1 [Compound A76] | 1000 to 10000 |  |  | 
17 | COc1cc(Nc2ncc3c(n2)-c2ccc(Cl)cc2C(c2c(F)cccc2OC)=NC3)ccc1C(=O)NC1CC(C#Cc2cccc(N3CCC(=O)NC3=O)c2)C1 (centres unmarked) [Compound A50] | < 1000 |  |  | 
18 | CN(CCN1CCN(c2ncc(N3CCC(=O)NC3=O)s2)CC1)C(=O)c1ccc(Nc2ncc3c(n2)-c2ccc(C4CC4)cc2C(c2c(F)cccc2F)=NC3)cc1 [Compound A135] |  |  |  | Percentage of AURKA Degradation Induced by 100 nM Compound in Jurkat Cells (AURKA; [3]): +++ (Degradation > 70%); Percentage of AURKA Degradation Induced by 1 µM Compound in Jurkat Cells (AURKA; [4]): ++ (30% < Degradation ≤ 70%); IC50 (H82 cells; [5]): < 1000 nM
19 | O=C1CCN(c2ccc(N3CCN(Cc4cnc(-c5ccc(Nc6ncc7c(n6)-c6ccc(Cl)cc6C(c6c(F)cccc6F)=NC7)cc5)[nH]4)CC3)cc2)C(=O)N1 [Compound A121] |  |  |  | Percentage of AURKA Degradation Induced by 100 nM Compound in Jurkat Cells (AURKA; [3]): +++ (Degradation > 70%); Percentage of AURKA Degradation Induced by 1 µM Compound in Jurkat Cells (AURKA; [4]): ++ (30% < Degradation ≤ 70%); IC50 (H82 cells; [5]): < 1000 nM
20 | O=C1CCN(c2ccc(N3CCC(O)(CN4CCN(c5ccc(Nc6ncc7c(n6)-c6ccc(Cl)cc6C(c6c(F)cccc6F)=NC7)cc5)C(=O)C4)CC3)nc2)C(=O)N1 [Compound A300] |  |  |  | Percentage of AURKA Degradation Induced by 100 nM Compound in Jurkat Cells (AURKA): +++ (key: +: Degradation ≤ 30%; ++: 30% < Degradation ≤ 70%; +++: Degradation > 70%); Percentage of AURKA Degradation Induced by 1 µM Compound in Jurkat Cells (AURKA): +++ (key: +: Degradation ≤ 30%; ++: 30% < Degradation ≤ 70%; +++: Degradation > 70%); IC50 (H82 cells; NCI-H82, read-out: IC50 in H82 Cells): < 1000 nM
